Experimental data taken from ChEMBL document CHEMBL1201862, “PubChem BioAssay data set” (2004).
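Values below derive from 48-hour exposures of cells grown in 96-well plates, with endpoints linearly interpolated between the two concentrations bracketing the appropriate inhibition level. At the GI50, growth is halved.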 Activity calls are given as the source filed them. No stated cut-off is given here; in the data, active = GI50 up to about 1.1 µM and inactive = higher. Square brackets hold non-standard residues; d marks the D form. Peptide text beside a SMILES is read from it. * marks the point of attachment. Boc = CC(C)(C)OC(=O)*; OBn = c1ccc(CO*)cc1

How the values were obtained:
Experiment in all cases: NCI-60 cell line screen, 48 h
A498 = system: A498
BT-549 = system: BT-549
HCC 2998 = system: HCC 2998
HCT-116 = system: HCT-116
HCT-15 = system: HCT-15
M14 = system: M14
MCF7 = system: MCF7
MDA-MB-231 = system: MDA-MB-231
MDA-MB-435 = system: MDA-MB-435
MDA-N = system: MDA-N
OVCAR-4 = system: OVCAR-4
RPMI-8226 = system: RPMI-8226
SF-268 = system: SF-268
SF-539 = system: SF-539
SK-OV-3 = system: SK-OV-3
SW-620 = system: SW-620
UACC-257 = system: UACC-257
SNB-75 = system: SNB-75
SR = system: SR

SMILES | GI50 (A498) | GI50 (BT-549) | GI50 (HCC 2998) | GI50 (HCT-116) | GI50 (HCT-15) [µM] | GI50 (M14) | GI50 (MCF7) | GI50 (MDA-MB-231) | GI50 (MDA-MB-435) | GI50 (MDA-N) | GI50 (OVCAR-4) | GI50 (RPMI-8226) | GI50 (SF-268) | GI50 (SF-539) | GI50 (SK-OV-3) | GI50 (SW-620) | GI50 (UACC-257) | GI50 (SNB-75) | GI50 (SR)
CC1(C)Cc2c(c3ccccc3c3nc4c(nc23)c2c(c3ccccc34)OC(C)(C)C2)O1 | > 100 µM (inactive) | > 100 µM (inactive) | > 100 µM (inactive) | > 100 µM (inactive) | > 100 | > 100 µM (inactive) | > 100 µM (inactive) | > 100 µM (inactive) | > 100 µM (inactive) | > 100 µM (inactive) | > 100 µM (inactive) | > 100 µM (inactive) | > 100 µM (inactive) | > 100 µM (inactive) | > 100 µM (inactive) | > 100 µM (inactive) | > 100 µM (inactive) | – | –
CC1=NN2C(=O)CC(=O)N=C2S1 | – | > 100 µM (inactive) | – | > 100 µM (inactive) | > 100 | > 100 µM (inactive) | > 100 µM (inactive) | > 100 µM (inactive) | > 100 µM (inactive) | > 100 µM (inactive) | > 100 µM (inactive) | > 100 µM (inactive) | > 100 µM (inactive) | > 100 µM (inactive) | > 100 µM (inactive) | > 100 µM (inactive) | > 100 µM (inactive) | > 100 µM (inactive) | > 100 µM (inactive)
O=C(O)C1CCCN(CCc2c[nH]c3ccccc23)C1 (stereo not drawn) | > 100 µM (inactive) | > 100 µM (inactive) | > 100 µM (inactive) | > 100 µM (inactive) | > 100 | > 100 µM (inactive) | > 100 µM (inactive) | > 100 µM (inactive) | > 100 µM (inactive) | > 100 µM (inactive) | > 100 µM (inactive) | > 100 µM (inactive) | > 100 µM (inactive) | > 100 µM (inactive) | > 100 µM (inactive) | > 100 µM (inactive) | > 100 µM (inactive) | > 100 µM (inactive) | –
CCOC(=O)c1c2ccccc2n2c(=O)n(-c3ccccc3)nnc12 | > 21.2 µM (inactive) | > 100 µM (inactive) | 47.1 µM (inactive) | 73.8 µM (inactive) | > 76.9 | 59 µM (inactive) | 0.923 µM (active) | > 100 µM (inactive) | 18.7 µM (inactive) | > 42.4 µM (inactive) | > 71.8 µM (inactive) | 15.3 µM (inactive) | > 100 µM (inactive) | > 96.4 µM (inactive) | – | > 100 µM (inactive) | > 33.3 µM (inactive) | 27.2 µM (inactive) | –
CC(C)(C)[Si](C)(C)OC1CCOC1(O)c1ccccn1 (stereo not drawn) | > 100 µM (inactive) | > 100 µM (inactive) | > 100 µM (inactive) | > 100 µM (inactive) | > 100 | > 100 µM (inactive) | > 100 µM (inactive) | > 100 µM (inactive) | > 100 µM (inactive) | > 100 µM (inactive) | > 100 µM (inactive) | 53.7 µM (inactive) | > 100 µM (inactive) | > 100 µM (inactive) | > 100 µM (inactive) | > 100 µM (inactive) | > 100 µM (inactive) | > 100 µM (inactive) | –
O=C(O)C(O)C(O)C(O)C(O)c1nc2ccccc2s1 (stereo not drawn) | 24.6 µM (inactive) | 26.3 µM (inactive) | – | 16.1 µM (inactive) | 27.9 | 17.8 µM (inactive) | 17.1 µM (inactive) | 16.6 µM (inactive) | 17.3 µM (inactive) | 17.1 µM (inactive) | 20.3 µM (inactive) | 25.9 µM (inactive) | 14.9 µM (inactive) | 17.9 µM (inactive) | 19.1 µM (inactive) | 22.3 µM (inactive) | 15.8 µM (inactive) | 16.9 µM (inactive) | –
Oc1cc(-c2ccccc2)nc2c(S)cccc12 | – | > 100 µM (inactive) | > 100 µM (inactive) | > 100 µM (inactive) | > 100 | > 100 µM (inactive) | > 100 µM (inactive) | 62.5 µM (inactive) | > 100 µM (inactive) | > 100 µM (inactive) | > 100 µM (inactive) | > 100 µM (inactive) | > 100 µM (inactive) | > 100 µM (inactive) | > 100 µM (inactive) | > 100 µM (inactive) | > 100 µM (inactive) | 23.5 µM (inactive) | > 100 µM (inactive)
C[C@@H](NC(=O)CNC(=O)OC(C)(C)C)C(=O)N[C@@H](Cc1ccccc1)C(=O)OCc1ccccc1 (Boc-Gly-[dA]-Phe-OBn) | – | > 100 µM (inactive) | – | 47.3 µM (inactive) | > 100 | 19.8 µM (inactive) | > 100 µM (inactive) | 37.1 µM (inactive) | 32.4 µM (inactive) | 36.7 µM (inactive) | > 100 µM (inactive) | – | 89.1 µM (inactive) | > 100 µM (inactive) | > 100 µM (inactive) | 61.7 µM (inactive) | 33.7 µM (inactive) | 43.9 µM (inactive) | 19.5 µM (inactive)
